ChEMBL document CHEMBL1201862, “PubChem BioAssay data set” (2004)
The source made the active and inactive calls.

Columns and labels:
cells [1] = format: functional
[2] = THP-1 cell cytotoxicity, dose response, cytotoxicity control for non-replicating M. tuberculosis project (AID 489025); format: functional
Fatty acid synthase [3] = target: T1, Fatty acid synthase (Homo sapiens, UniProt P49327); assay: inhibition of human FAS-TE enzyme activity – biochemical, endpoint fluorescence intensity, uHTS hits, dose response (AID 624327); format: functional;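 note: fluorescence from hydrolysis of an O-methyl fluorescein acyl ester substrate by the enzyme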
Fatty acid synthase [4] = target: T1, Fatty acid synthase; assay: inhibition of human FAS-TE enzyme activity – biochemical, kinetic fluorescence intensity, dose response (AID 624326); format: functional;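 note: rate of fluorescence rise from hydrolysis of a fluorogenic O-methyl fluorescein ester substrate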
[5] = Luminescence Cell-Based Dose Retest to Confirm Inhibitors of Cancer Stem Cells. [Related pubchem assays (depositor defined):AID2717, AID2721]; format: functional; settings: Homo sapiens
[6] = target: FAD-linked sulfhydryl oxidase ALR (Homo sapiens, UniProt P55789); assay: ALR-catalysed DTT oxidation blockers – biochemical, H2O2 detection, luminescence, cherry-pick, dose response (AID 493248)
[7] = loss of viability in HepG2 cells – cell-based, CellTiter-Glo, cherry-picked, cytotoxicity control for Shn3 inhibitor project, dose response (AID 624134); format: functional
[8] = non-specific 3'UTR reporter inhibition in Clone20-Shn3RL – cell-based, Renilla luciferase, cherry-picked, counter-screen for Shn3 inhibitor project, dose response (AID 624133); format: functional
INS1 = assay: INS-1E survival protection against cytokine death – cell-based, luminescence, retest, dose response (AID 449756); format: functional; settings: Rattus norvegicus;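 note: cell death triggered by IL-1 beta plus TNF-alpha plus IFN-gamma mixture; protective hits raise ATP signal compared with cytokine alone wells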
[9] = reduction of Shn3 3'UTR-driven luciferase in osteoblasts – cell-based, Clone20 osteoblasts, firefly luciferase, cherry-picked, dose response (AID 624132); format: functional;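 note: firefly luciferase luminescence from reporter carrying the Shn3 3'UTR in osteoblasts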
cells [10] = format: functional, cell-based
cells [11] = format: functional, cell-based; remark: listed apart in the source
Nonstructural protein 1 = Nonstructural protein 1 (Influenza A virus, UniProt Q194T2); format: functional, Influenza A virus (A/California/07/2009(H1N1))
[12] = target: T2, Polyadenylate-binding protein 1 (Homo sapiens, UniProt P11940); assay: MLLE binding blockers, Cy5 peptide tracer – biochemical, fluorescence polarization, Cy5-PAM2 peptide, secondary, miRNA deadenylation inhibitor project, dose response (AID 602260); format: functional; settings: read-out: IC50_Mean
[13] = target: T2, Polyadenylate-binding protein 1; assay: MLLE domain peptide-binding blockers, IC50 – biochemical, fluorescence polarization, FITC-PAM2 peptide, dose response (AID 602259); format: functional; settings: read-out: IC50_Mean
Estrogen receptor beta = Estrogen receptor beta (Homo sapiens, UniProt Q92731);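 note: recombinant ER-beta bound to coactivator SRC1 peptide in presence of estradiol agonist; inhibitors block coactivator peptide binding and lower the FRET signal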
Cytochrome P450 3A4 = Cytochrome P450 3A4 (Homo sapiens, UniProt P08684); settings: Potency;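 note: confirmatory qHTS run detecting inhibitors and substrates of CYP3A4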
[14] = target: Glyceraldehyde-3-phosphate dehydrogenase (Homo sapiens, UniProt P04406)
Sequence of Glyceraldehyde-3-phosphate dehydrogenase (P04406 whole entry): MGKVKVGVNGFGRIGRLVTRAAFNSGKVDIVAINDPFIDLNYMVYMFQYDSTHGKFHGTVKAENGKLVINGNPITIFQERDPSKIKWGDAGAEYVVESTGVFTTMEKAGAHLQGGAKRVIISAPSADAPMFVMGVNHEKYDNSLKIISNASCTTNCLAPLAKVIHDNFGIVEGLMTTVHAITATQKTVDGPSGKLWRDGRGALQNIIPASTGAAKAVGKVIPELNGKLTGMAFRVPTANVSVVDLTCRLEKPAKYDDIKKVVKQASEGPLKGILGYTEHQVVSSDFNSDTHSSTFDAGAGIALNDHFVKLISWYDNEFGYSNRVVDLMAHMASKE

T1 sequence (P49327 whole entry): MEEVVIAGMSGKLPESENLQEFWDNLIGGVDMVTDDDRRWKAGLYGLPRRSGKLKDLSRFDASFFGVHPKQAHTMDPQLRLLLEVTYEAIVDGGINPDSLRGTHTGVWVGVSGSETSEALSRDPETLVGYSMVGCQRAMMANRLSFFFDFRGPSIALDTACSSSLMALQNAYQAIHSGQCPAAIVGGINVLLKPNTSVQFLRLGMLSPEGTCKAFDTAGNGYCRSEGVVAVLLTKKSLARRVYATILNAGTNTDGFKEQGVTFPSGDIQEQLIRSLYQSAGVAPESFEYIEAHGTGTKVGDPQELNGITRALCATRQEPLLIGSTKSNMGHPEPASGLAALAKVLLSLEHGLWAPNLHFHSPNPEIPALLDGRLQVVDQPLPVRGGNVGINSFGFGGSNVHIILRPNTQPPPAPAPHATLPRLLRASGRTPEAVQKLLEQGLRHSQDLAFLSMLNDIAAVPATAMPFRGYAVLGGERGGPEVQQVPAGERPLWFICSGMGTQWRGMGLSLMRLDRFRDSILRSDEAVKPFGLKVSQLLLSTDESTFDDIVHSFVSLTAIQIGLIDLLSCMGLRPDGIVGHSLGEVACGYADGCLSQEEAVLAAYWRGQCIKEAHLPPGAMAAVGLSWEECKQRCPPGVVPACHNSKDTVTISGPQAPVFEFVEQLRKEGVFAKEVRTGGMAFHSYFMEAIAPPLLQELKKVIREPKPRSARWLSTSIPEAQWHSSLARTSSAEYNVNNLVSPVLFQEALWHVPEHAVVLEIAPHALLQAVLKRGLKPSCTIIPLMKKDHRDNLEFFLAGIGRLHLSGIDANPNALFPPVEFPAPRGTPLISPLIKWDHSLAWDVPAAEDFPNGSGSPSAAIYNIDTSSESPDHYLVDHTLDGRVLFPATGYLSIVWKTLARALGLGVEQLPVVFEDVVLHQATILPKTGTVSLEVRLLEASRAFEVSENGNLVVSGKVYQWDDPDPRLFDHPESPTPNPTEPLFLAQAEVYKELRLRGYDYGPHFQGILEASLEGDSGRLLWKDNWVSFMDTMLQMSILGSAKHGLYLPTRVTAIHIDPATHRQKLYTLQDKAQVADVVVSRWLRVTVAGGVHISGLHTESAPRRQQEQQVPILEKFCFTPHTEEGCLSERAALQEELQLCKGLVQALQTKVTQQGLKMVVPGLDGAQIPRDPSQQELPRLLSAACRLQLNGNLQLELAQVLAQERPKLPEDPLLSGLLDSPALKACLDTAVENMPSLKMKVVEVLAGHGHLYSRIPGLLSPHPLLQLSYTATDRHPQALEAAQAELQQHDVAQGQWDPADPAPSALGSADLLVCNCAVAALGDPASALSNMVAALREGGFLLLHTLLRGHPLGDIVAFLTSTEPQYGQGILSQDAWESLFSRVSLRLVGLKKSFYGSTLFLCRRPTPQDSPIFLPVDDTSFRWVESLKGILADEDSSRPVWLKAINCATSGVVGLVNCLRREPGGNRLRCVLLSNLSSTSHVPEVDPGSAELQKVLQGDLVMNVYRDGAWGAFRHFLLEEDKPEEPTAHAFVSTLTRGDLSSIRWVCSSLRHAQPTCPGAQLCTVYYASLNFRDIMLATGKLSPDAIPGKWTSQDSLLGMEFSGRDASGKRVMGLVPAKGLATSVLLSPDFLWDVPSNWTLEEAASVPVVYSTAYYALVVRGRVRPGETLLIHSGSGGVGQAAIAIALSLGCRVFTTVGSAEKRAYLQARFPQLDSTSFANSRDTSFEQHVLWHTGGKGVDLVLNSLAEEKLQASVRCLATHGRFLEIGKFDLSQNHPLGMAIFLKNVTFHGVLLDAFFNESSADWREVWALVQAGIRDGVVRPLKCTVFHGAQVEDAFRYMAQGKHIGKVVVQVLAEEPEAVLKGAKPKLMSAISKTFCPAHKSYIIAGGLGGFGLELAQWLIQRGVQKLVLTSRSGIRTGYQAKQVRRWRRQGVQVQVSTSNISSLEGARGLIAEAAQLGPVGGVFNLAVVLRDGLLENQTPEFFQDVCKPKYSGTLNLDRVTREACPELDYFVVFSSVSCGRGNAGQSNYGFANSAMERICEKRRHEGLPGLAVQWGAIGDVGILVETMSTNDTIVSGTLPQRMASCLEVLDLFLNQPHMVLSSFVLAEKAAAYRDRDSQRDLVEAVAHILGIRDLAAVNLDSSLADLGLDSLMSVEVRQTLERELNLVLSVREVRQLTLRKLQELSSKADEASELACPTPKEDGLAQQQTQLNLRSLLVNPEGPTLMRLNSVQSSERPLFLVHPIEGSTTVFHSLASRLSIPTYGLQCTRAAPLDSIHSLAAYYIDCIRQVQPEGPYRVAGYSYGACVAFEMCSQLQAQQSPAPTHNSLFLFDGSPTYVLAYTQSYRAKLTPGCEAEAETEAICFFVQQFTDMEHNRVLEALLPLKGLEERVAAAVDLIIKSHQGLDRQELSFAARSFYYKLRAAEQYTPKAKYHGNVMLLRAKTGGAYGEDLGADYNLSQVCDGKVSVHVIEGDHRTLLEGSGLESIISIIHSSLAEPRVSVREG
T2 sequence (P11940 whole entry, the tested form may be a part): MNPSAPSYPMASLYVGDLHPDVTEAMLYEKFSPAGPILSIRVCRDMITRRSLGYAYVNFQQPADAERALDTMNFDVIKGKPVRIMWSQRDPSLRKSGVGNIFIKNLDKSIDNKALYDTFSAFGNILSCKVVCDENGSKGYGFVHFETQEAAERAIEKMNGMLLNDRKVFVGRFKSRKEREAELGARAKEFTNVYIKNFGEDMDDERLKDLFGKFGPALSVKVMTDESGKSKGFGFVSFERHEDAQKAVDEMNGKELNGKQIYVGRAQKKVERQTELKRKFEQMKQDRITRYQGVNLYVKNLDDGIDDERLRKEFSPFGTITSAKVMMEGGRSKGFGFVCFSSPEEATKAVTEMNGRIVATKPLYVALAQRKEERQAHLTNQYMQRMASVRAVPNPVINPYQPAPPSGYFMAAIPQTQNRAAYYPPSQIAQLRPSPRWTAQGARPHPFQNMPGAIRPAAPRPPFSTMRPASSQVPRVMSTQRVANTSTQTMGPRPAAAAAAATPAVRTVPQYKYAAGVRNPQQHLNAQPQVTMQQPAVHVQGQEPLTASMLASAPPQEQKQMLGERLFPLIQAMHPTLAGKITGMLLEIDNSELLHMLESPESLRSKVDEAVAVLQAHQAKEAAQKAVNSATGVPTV
Sequence of FAD-linked sulfhydryl oxidase ALR (P55789 whole entry): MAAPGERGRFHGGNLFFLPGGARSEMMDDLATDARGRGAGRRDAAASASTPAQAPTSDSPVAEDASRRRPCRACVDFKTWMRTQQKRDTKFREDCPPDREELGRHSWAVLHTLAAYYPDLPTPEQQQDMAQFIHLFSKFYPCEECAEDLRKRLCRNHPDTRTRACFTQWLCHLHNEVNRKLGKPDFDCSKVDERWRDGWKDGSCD
Sequence of Nonstructural protein 1 (Q194T2 whole entry): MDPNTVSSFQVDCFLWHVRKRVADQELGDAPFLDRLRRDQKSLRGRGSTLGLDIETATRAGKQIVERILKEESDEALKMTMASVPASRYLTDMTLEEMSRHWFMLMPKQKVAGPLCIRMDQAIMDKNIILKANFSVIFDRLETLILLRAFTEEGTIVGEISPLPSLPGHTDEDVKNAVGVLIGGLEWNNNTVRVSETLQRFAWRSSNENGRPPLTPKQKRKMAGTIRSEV
Sequence of Cytochrome P450 3A4 (P08684 whole entry): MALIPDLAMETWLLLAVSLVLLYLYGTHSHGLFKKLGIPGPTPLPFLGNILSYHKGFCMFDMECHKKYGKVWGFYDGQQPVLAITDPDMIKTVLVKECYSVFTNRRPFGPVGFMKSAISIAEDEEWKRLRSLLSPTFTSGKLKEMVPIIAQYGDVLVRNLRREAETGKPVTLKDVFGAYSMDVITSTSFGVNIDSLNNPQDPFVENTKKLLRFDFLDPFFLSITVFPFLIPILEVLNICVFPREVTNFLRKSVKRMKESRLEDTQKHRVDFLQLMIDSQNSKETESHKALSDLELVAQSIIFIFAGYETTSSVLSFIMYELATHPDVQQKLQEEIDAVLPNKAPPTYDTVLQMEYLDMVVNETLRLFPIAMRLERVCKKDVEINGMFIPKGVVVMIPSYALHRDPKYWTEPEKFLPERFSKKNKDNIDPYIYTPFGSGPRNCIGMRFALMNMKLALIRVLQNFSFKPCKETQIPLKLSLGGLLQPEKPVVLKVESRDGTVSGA
Sequence of Estrogen receptor beta (Q92731 whole entry): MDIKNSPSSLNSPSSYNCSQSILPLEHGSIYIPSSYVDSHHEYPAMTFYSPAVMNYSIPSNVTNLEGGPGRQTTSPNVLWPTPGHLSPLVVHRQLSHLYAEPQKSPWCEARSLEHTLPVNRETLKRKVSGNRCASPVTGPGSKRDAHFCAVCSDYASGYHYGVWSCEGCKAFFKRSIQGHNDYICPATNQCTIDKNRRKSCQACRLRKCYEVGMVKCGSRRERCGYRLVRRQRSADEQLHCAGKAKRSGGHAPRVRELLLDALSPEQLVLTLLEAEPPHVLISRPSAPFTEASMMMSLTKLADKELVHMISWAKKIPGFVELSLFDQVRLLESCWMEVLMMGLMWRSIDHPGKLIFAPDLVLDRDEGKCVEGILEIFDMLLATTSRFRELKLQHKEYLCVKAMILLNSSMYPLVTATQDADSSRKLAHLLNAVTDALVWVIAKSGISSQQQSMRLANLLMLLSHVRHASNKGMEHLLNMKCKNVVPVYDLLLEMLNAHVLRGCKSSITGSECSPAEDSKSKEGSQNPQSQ

For `Cc1cccc2cc(C#N)c(NCCCn3ccnc3)nc12`, the IC50 (cells [1]) was 43.2 µM (active) and the CC50 [2] was > 40 µM (active).

For `O=C(COC(=O)c1cc([N+](=O)[O-])ccc1N1CCOCC1)Nc1c(Cl)cccc1Cl`, the IC50 (Fatty acid synthase [3]) was 7.85 µM (active) and the IC50 (Fatty acid synthase [4]) was 6.21 µM (active).

For `O=C(/C=C/c1c[nH]c2ccccc12)c1cccc2ccccc12`, the AC50 [5] was 2.92 µM (active).

With `CCN(CC)c1ccc(NC(=O)c2ccc(Br)o2)c(C)c1` the AC50 [6] was 1.61 µM (active).

For `Cc1cc(N2CCCC2=O)cc(C)c1S(=O)(=O)NCCOc1ccc(C(C)(C)C)cc1`, the AC50 [7] was 51.4 µM (active), the AC50 [8] was 2.36 µM (active) and the AC50 (INS1) was 2.58 µM (active). The AC50 [9] was 1.15 µM (active).

In the case of `O=C(Nc1nc2ccccc2[nH]1)c1ccc(F)cc1`, the IC50 (cells [1]) is reported as 4.33 µM (active) and the CC50 [2] is reported as > 40 µM (active).

For `CCOC(=O)N1CCN(C(=O)c2ccc(Cn3c(=S)[nH]c4cc(OCC)c(OCC)cc4c3=O)cc2)CC1`, the EC50 (cells [10]) was > 350 µM (not active) and the EC50 (cells [11]) was > 350 µM (not active).

For `CC(C)(C)c1cc(CSC(S)=NC2CCS(=O)(=O)C2)c(Br)c(C(C)(C)C)c1` (stereo unspecified), the AC50 [5] was 3.19 µM (active).

In the case of `O=C1[C@@H]2Cc3c([nH]c4ccccc34)C(c3ccccc3)N2C(=O)CN1C1CCN(Cc2ccccc2)CC1` (stereo partly specified), the IC50 (Nonstructural protein 1) is reported as > 100 µM (active).

With `O=C1NC(c2ccccc2)(C(F)(F)F)SC2=CCCCCN12` (stereo unspecified) the IC50 [12] was > 66 µM (inactive) and the IC50 [13] was > 66 µM (inactive).

For `O=C(CN1C(=O)COc2ccc(Cl)cc21)Nc1ccc2c(c1)OCCO2`, the EC50 (cells [10]) was > 350 µM (not active) and the EC50 (cells [11]) was > 350 µM (not active).

With `Nc1[nH]c(N=NC(=O)c2ccccc2O)c2ccccc12` the IC50 (Nonstructural protein 1) was 24.5 µM (active).

In the case of `CCCCC(CC)C(=O)NCc1ccccc1OC` (stereo unspecified), the IC50 (Estrogen receptor beta) is reported as > 50 µM (not active).

In the case of `CC(C)Oc1ccc(C2CC(=O)N(Nc3ccc([N+](=O)[O-])cc3[N+](=O)[O-])C2=O)cc1` (stereo unspecified), the IC50 (Fatty acid synthase [3]) is reported as 0.577 µM (active) and the IC50 (Fatty acid synthase [4]) is reported as 0.846 µM (active).

In the case of `Cn1c(N)c(C(=O)COC(=O)c2cc(C3CC3)nc3ccccc23)c(=O)n(Cc2ccccc2)c1=O`, the AC50 (Cytochrome P450 3A4) is reported as 15.8 µM (inconclusive).

In the case of `O=C1C2CCCCC2C(=O)N1c1nc(Cc2ccccc2)n[nH]1` (stereo unspecified), the IC50 [14] is reported as > 100 µM (not active).

With `O=C(NC(=S)NNS(=O)(=O)c1ccc(Cl)cc1)c1cccnc1` the IC50 [12] was > 66 µM (inactive) and the IC50 [13] was > 66 µM (inactive).

For `COc1ccccc1/C=C1\SC(NNC(=O)c2cccc(Br)c2)=NC1=O`, the AC50 [5] was 2.09 µM (active).

For `CCC(SC1=NCCS1)C(=O)Nc1ccc(S(N)(=O)=O)cc1` (stereo unspecified), the IC50 [12] was > 66 µM (inactive) and the IC50 [13] was > 66 µM (inactive).

With `COc1ccc(NC(=O)Cn2nnc(-c3ccccc3NS(=O)(=O)c3ccccc3)n2)cc1` the AC50 [7] was 9.81 µM (active), the AC50 [8] was 16.1 µM (active) and the AC50 [9] was 0.485 µM (active).

In the case of `COc1ccccc1OCC(O)Cn1c(=N)n(Cc2ccccc2)c2ccccc21` (stereo unspecified), the AC50 [7] is reported as 22.1 µM (active), the AC50 [8] is reported as 10.7 µM (active) and the AC50 [9] is reported as 4.01 µM (active).

For `O=C(CCc1ccccc1F)N1CCN(c2ccccc2)CC1`, the AC50 [6] was > 100 µM (inactive).

With `CC(C)c1onc(C(=O)Nc2sc3c(c2C#N)CCC3)c1[N+](=O)[O-]` the EC50 (cells [10]) was > 350 µM (not active) and the EC50 (cells [11]) was > 350 µM (not active).

In the case of `CCCCCCCN1C(Nc2ccccc2)=NC[C@@H]1Cc1ccccc1`, the AC50 [7] is reported as 23 µM (active), the AC50 [8] is reported as 6.34 µM (active) and the AC50 [9] is reported as 4.82 µM (active).

For `O=C(CCNC(=O)c1ccc([N+](=O)[O-])cc1)NCCc1ccccc1`, the IC50 (Fatty acid synthase [3]) was 10.3 µM (active) and the IC50 (Fatty acid synthase [4]) was 11.2 µM (active).

For `CCOC(=O)c1[nH]c(C)c(C(=O)OCc2ccccc2F)c1C`, the AC50 [5] was 0.633 µM (active).
